What was measured:
Format in all cases: in vivo
Alopecurus myosuroides = assay: Herbicidal action post-emergence (greenhouse pot trial); conditions: application rate 20 g/ha, scored visually after about 3 weeks vs untreated controls
Experimental: (§1) Seeds of mono- and dicotyledonous weed plants and crop plants are laid out in sandy loam soil in plastic or wood-fiber pots, covered with earth and grown under controlled growth conditions in a greenhouse. 2 to 3 weeks after sowing, the trial plants are treated at the one-leaf stage. The compounds of the invention formulated in the form of wettable powders (WP) or emulsion concentrates (EC) were then sprayed onto the green parts of the plant as an aqueous suspension or emulsion with addition of 0.5% additive at a water application rate equivalent to 600 L/ha. After the trial plants had stood for about 3 weeks in the greenhouse, under optimal growth conditions, the effect of the preparations was scored visually by comparison with untreated controls. For example, 100% efficacy=plants have died, 0% efficacy=like control plants. Tables A1 to A15 below show the efficacies of selected compounds of the general formula (I) according to tables I.1 to I.60 on various harmful plants and an application rate corresponding to 80 g/ha or lower that were obtained by the aforementioned trial method.

Pharbitis purpurea = assay: as above; conditions: application rate 20 g/ha
Experimental: as §1

Veronica persica = assay: as above; conditions: application rate 20 g/ha
Experimental: as §1

Stellaria media = assay: as above; conditions: application rate 20 g/ha, scored visually after about 3 weeks vs untreated controls
Experimental: as §1

Amaranthus retroflexus = assay: as above; conditions: application rate 20 g/ha, scored visually after about 3 weeks vs untreated controls
Experimental: as §1

Polygonum convolvulus = assay: as above; conditions: application rate 20 g/ha, scored visually after about 3 weeks vs untreated controls
Experimental: as §1

Abutilon theophrasti = assay: as above; conditions: application rate 20 g/ha, scored visually after about 3 weeks vs untreated controls
Experimental: as §1

Viola tricolor = assay: as above; conditions: application rate 20 g/ha
Experimental: as §1

Oryza sativa = assay: Crop compatibility post-emergence (greenhouse pot trial); conditions: application rate 20 g/ha
Experimental: as §1, with “plants.” for “plants. Tables A1 to A15 below show the efficacies of selected compounds of the general formula (I) according to tables I.1 to I.60 on various harmful plants and an application rate corresponding to 80 g/ha or lower that were obtained by the aforementioned trial method.”
(§2) Crop plant compatibilities were also scored correspondingly.
(§3) The effects observed are reported here on selected crop plants by comparison with the untreated controls (values in %).

Triticum aestivum = assay: as above
Experimental: as §1, with “plants.” for “plants. Tables A1 to A15 below show the efficacies of selected compounds of the general formula (I) according to tables I.1 to I.60 on various harmful plants and an application rate corresponding to 80 g/ha or lower that were obtained by the aforementioned trial method.”
as §2, §3

Setaria viridis = assay: Herbicidal action post-emergence (greenhouse pot trial); conditions: application rate 20 g/ha, scored visually after about 3 weeks vs untreated controls
Experimental: as §1

Zea mays = assay: Crop compatibility post-emergence (greenhouse pot trial)
Experimental: as §1, with “plants.” for “plants. Tables A1 to A15 below show the efficacies of selected compounds of the general formula (I) according to tables I.1 to I.60 on various harmful plants and an application rate corresponding to 80 g/ha or lower that were obtained by the aforementioned trial method.”
as §2, §3

Matricaria inodora = assay: Herbicidal action post-emergence (greenhouse pot trial); conditions: application rate 20 g/ha, scored visually after about 3 weeks vs untreated controls
Experimental: as §1

Echinochloa crus-galli = assay: as above; conditions: application rate 20 g/ha, scored visually after about 3 weeks vs untreated controls
Experimental: as §1

Digitaria sanguinalis = assay: as above; conditions: application rate 20 g/ha
Experimental: as §1

SMILES	Alopecurus myosuroides (Efficacy in %) (Alopecurus myosuroides) [%]	Pharbitis purpurea (Efficacy in %) (Pharbitis purpurea) [%]	Veronica persica (Efficacy in %) (Veronica persica) [%]	Stellaria media (Efficacy in %) (Stellaria media) [%]	Amaranthus retroflexus (Efficacy in %) (Amaranthus retroflexus) [%]	Polygonum convolvulus (Efficacy in %) (Polygonum convolvulus) [%]	Abutilon theophrasti (Efficacy in %) (Abutilon theophrasti) [%]	Viola tricolor (Efficacy in %) (Viola tricolor) [%]	Oryza sativa (Efficacy in %) (Oryza sativa) [%]	Triticum aestivum (Efficacy in %) (Triticum aestivum; application rate 20 g/ha) [%]	Setaria viridis (Efficacy in %) (Setaria viridis) [%]	Zea mays (Efficacy in %) (Zea mays; application rate 5 g/ha) [%]	Matricaria inodora (Efficacy in %) (Matricaria inodora) [%]	Echinochloa crus-galli (Efficacy in %) (Echinochloa crus-galli) [%]	Triticum aestivum (Efficacy in %) (Triticum aestivum; application rate 5 g/ha) [%]	Zea mays (Efficacy in %) (Zea mays; application rate 20 g/ha) [%]	Digitaria sanguinalis (Efficacy in %) (Digitaria sanguinalis) [%]
Cn1c(C(F)(F)F)cc(=O)n(-c2cc(SCC(C)(C)C(=O)OCC3CCOCC3)c(Cl)cc2F)c1=O [I.48-93]	80	100	100	100	100	80	100	100	0	0	–	–	–	–	–	–	–
Cn1c(C(F)(F)F)cc(=O)n(-c2cc(SCC(C)(C)C(=O)OCC3CCCOC3)c(Cl)cc2F)c1=O (centres unmarked) [I.48-92, Tetrahydro-2H-pyran-3-ylmethyl 3-({2-chloro-4-fluoro-5-[3-methyl-2,6-dioxo-4-(trifluoromethyl)-3,6-dihydropyrimidin-1(2H)-yl]phenyl}sulfanyl)-2,2-dimethylpropanoate]	–	–	100	100	100	80	100	100	10	0	100	10	–	–	–	–	–
CCC(Sc1cc(-n2c(=O)cc(C(F)(F)F)n(C)c2=O)c(F)cc1Cl)C(=O)OCC1CCCCO1 (centres unmarked) [I.2-91, Tetrahydro-2H-pyran-2-ylmethyl 2-({2-chloro-4-fluoro-5-[3-methyl-2,6-dioxo-4-(trifluoromethyl)-3,6-dihydropyrimidin-1(2H)-yl]phenyl}sulfanyl)butanoate]	90	100	100	80	100	100	100	100	–	–	100	–	100	100	20	–	–
CC(Sc1cc(-n2c(=O)cc(C(F)(F)F)n(C)c2=O)c(F)cc1Cl)C(=O)NCC1COC(C)(C)O1 (centres unmarked) [I.1-334]	–	–	100	90	100	90	100	100	10	–	90	–	100	–	–	20	–
Cn1c(C(F)(F)F)cc(=O)n(-c2cc(SCC(C)(C)C(=O)OC3CCOCC3)c(Cl)cc2F)c1=O [I.48-127]	–	90	100	100	100	90	100	100	0	10	–	20	90	–	–	–	–
CCC(Sc1cc(-n2c(=O)cc(C(F)(F)F)n(C)c2=O)c(F)cc1Cl)C(=O)OCC1CCCOC1 (centres unmarked) [I.2-92, Tetrahydro-2H-pyran-3-ylmethyl 2-({2-chloro-4-fluoro-5-[3-methyl-2,6-dioxo-4-(trifluoromethyl)-3,6-dihydropyrimidin-1(2H)-yl]phenyl}sulfanyl)butanoate]	80	100	100	100	100	100	100	100	–	–	100	–	100	100	20	–	100
COC(C)COC(=O)C(C)Sc1cc(-n2c(=O)cc(C(F)(F)F)n(C)c2=O)c(F)cc1Cl (centres unmarked) [I.1-51]	80	100	100	80	100	100	100	100	–	20	100	–	100	100	–	–	100
CCC(Sc1cc(-n2c(=O)c(C)c(C(F)(F)F)n(C)c2=O)c(F)cc1Cl)C(=O)OCC1CCCO1 (centres unmarked) [I.12-71]	–	100	100	100	100	80	100	100	0	–	–	0	80	100	0	–	–
Cn1c(C(F)(F)F)cc(=O)n(-c2cc(SCC(C)(C)C(=O)OC3CCOC3)c(Cl)cc2F)c1=O (centres unmarked) [I.48-121]	80	100	100	80	100	100	100	100	0	0	–	–	100	–	–	–	80
COCCNC(=O)C(C)Sc1cc(-n2c(=O)cc(C(F)(F)F)n(C)c2=O)c(F)cc1Cl (centres unmarked) [I.1-151]	–	100	100	100	100	100	100	100	20	–	100	20	100	–	20	–	80
